# Test results published in PubChem BioAssay (NCI).
#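 A five-concentration, 48-hour dose response in 96-well plates underlies each endpoint, interpolated linearly between surrounding concentrations. Abbreviation: GI50, concentration required for 50% inhibition of growth. At the TGI there is no net growth.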
# How the values were obtained:
# Test in all cases: growth of human tumour cells (NCI), 48 h
# [1] = tested on: A498 renal
# [2] = tested on: A549 NSCLC
# [3] = tested on: ACHN renal
# [4] = tested on: BT-549 breast
# [5] = tested on: CAKI-1 renal
# [6] = tested on: CCRF-CEM leukemia
# [7] = tested on: COLO 205 colon
# [8] = tested on: DU-145 prostate
# [9] = tested on: EKVX NSCLC
# [10] = tested on: HCC-2998 colon
# [11] = tested on: HCT-116 colon
# [12] = tested on: HCT-15 colon
# [13] = tested on: HL-60(TB) leukemia
# [14] = tested on: HOP-62 NSCLC
# [15] = tested on: HOP-92 NSCLC
# [16] = tested on: HS 578T breast
# [17] = tested on: HT29 colon
# [18] = tested on: IGROV1 ovarian
# [19] = tested on: K-562 leukemia
# [20] = tested on: KM12 colon
# [21] = tested on: LOX IMVI melanoma
# [22] = tested on: M14 melanoma
# [23] = tested on: MALME-3M melanoma
# [24] = tested on: MCF7 breast
# [25] = tested on: MDA-MB-231 breast
# [26] = tested on: MDA-MB-435
# [27] = tested on: MOLT-4 leukemia
# [28] = tested on: NCI-H226 lung
# [29] = tested on: NCI-H23 lung
smiles,measurement,setting,value
COc1cc(-c2n/c(=C\c3c(O)[nH]c4ccccc34)cc3c2=Nc2ccccc2-3)ccc1F,GI50,[1],40.4 µM
same,TGI,[1],> 100 µM
same,GI50,[2],7.06 µM
same,TGI,[2],23.5 µM
same,GI50,[3],8.09 µM
same,TGI,[3],35.2 µM
same,GI50,[4],4.07 µM
same,TGI,[4],18.1 µM
same,GI50,[5],38.5 µM
same,TGI,[5],> 100 µM
same,GI50,[6],4.75 µM
same,TGI,[6],> 100 µM
same,GI50,[7],10.9 µM
same,TGI,[7],> 100 µM
same,GI50,[8],7.3 µM
same,TGI,[8],25.5 µM
same,GI50,[9],20.9 µM
same,TGI,[9],> 100 µM
same,GI50,[10],4.32 µM
same,TGI,[10],> 100 µM
same,GI50,[11],4.09 µM
same,TGI,[11],21.6 µM
same,GI50,[12],17.2 µM
same,TGI,[12],> 100 µM
same,GI50,[13],> 100 µM
same,TGI,[13],> 100 µM
same,GI50,[14],4.68 µM
same,TGI,[14],17.3 µM
same,GI50,[15],3.29 µM
same,TGI,[15],19.9 µM
same,GI50,[16],19.7 µM
same,TGI,[16],> 100 µM
same,GI50,[17],4.02 µM
same,TGI,[17],16.1 µM
same,GI50,[18],10.3 µM
same,TGI,[18],48.9 µM
same,GI50,[19],5.88 µM
same,TGI,[19],62.1 µM
same,GI50,[20],7.7 µM
same,TGI,[20],> 100 µM
same,GI50,[21],9.09 µM
same,TGI,[21],59.7 µM
same,GI50,[22],5.2 µM
same,TGI,[22],22.3 µM
same,GI50,[23],4.38 µM
same,TGI,[23],23.2 µM
same,GI50,[24],2.51 µM
same,TGI,[24],> 100 µM
same,GI50,[25],3.91 µM
same,TGI,[25],16.8 µM
same,GI50,[26],5.8 µM
same,TGI,[26],64.4 µM
same,GI50,[27],9.61 µM
same,TGI,[27],97.9 µM
same,GI50,[28],19.9 µM
same,TGI,[28],> 100 µM
same,GI50,[29],2.83 µM
